Assay: 4 week high-fat diet study, body weight, adipose tissue, plasma glucose and cholesterol
Assay type: in vivo, C57BL/6 mice
Details: mice, N-TTA 750 mg/kg or triple-N-TTA 350 mg/kg body weight, 4 weeks
Description: This animal study was conducted according to the Guidelines for the Care and Use of Experimental Animals, and the protocol was approved by the Norwegian Food Authorities. 7 to 8-weeks old male C57BL/6 mice, were obtained from Janvier Labs. After one week of acclimatization, they were divided into 3 groups of 7 animals. One group was fed a control high-fat (25 w/v) diet while the two remaining groups were fed a high-fat diet supplemented with either N-TTA (750 mg/kg body weight) or triple-N-TTA (350 mg/kg body weight). After 4 weeks of feeding, the mice were anaesthetized with Isofluorane (Forane, Abbot Laboratories Ltd, Illinois, USA) inhalation under fasting conditions, and blood and liver samples were collected. […]
Glucose and lipids in plasma was measured on the Hitachi 917 system (Roche Diagnostics, GmbH, Mannheim, Germany) using kits from Roche Diagnostics or DiaSys.

Question: What does the source list for CCCCCCCCCCCCCCNCC(=O)O [N-TTA, N-tetradecylglycine]?
Answer: LDL cholesterol (plasma): reduced; body weight gain vs high-fat control diet: significantly lower; cholesterol esters (plasma): reduced; epididymal white adipose tissue depot: reduced in size; free cholesterol (plasma): reduced; perirenal white adipose tissue depot: reduced in size; total cholesterol (plasma): reduced; blood glucose vs high-fat control diet (fasting): significantly lower
